Source: article PMC3476531, “Synergy of Peptide and Sugar in O-GlcNAcase Substrate Recognition” (Chemistry & Biology, 2012)

Target: CpOGA (Clostridium perfringens, UniProt Q0TR53)
Conditions: read-out: Michaelis constant (KM) of glycopeptide substrate for CpOGA; pH 7.4

Substance | Km
PVSVPYS(O-GlcNAc)SAQSTS [TAB1 (Ser395) 13] | 36 ± 1 µM
VAHS(O-GlcNAc)GAK [hOGA (Ser405) 7] | 40 ± 10 µM
p53 (Ser149) 11: 11-residue O-GlcNAc glycopeptide derived from p53 Ser149 site | 2.9 ± 0.4 µM
